ChEMBL document CHEMBL3880393, “2-(Pyridin-2-ylamino)-pyrido[2,3-d]pyrimidin-7-ones” (2003)

Molecular target: Fibroblast growth factor receptor (Homo sapiens, UniProt P22607+P11362+P22455+P21802)
Assay: Inhibition of FGFR (unknown origin) using poly (4:1) glutamate-tyrosine substrate and [gamma32P]ATP incubated for 10 mins by beta plate counter based assay
Assay type: protein assay

- IC50: 2.98 µM
Compound: O=c1ccc2cnc(Nc3ccccc3)nc2n1C1CCCC1
